Assay results from patent publication US20250049737A1, “Lauflumide and derivatives thereof for treating chronic fatigue syndrome and myalgic encephalomyelitis/chronic fatigue syndrome (ME/CFS)” (NLS Pharmaceutics AG, priority 2021, published 2025).

Columns and labels:
[1] = Body weight during fatigue procedure and test period; assay type: in vivo, Rats, Sprague-Dawley; settings: test period
Protocol: FIG. 26 Body weight (in g; mean, SEM) before the beginning and during the fatigue procedure (F-D1-7) and during the test period (T-D1-D3+24 h).
Animals were weighed every day.
After the end of the Fatigue procedure, animals were divided into 10 groups which received before tests (total: 3 administrations) a per-os (p.o., oral gavage) administration of: • Sham (no fatigue) group (N=12): Vehicle. • Control group (N=11): Vehicle. • Modafinil 32 (N=10): modafinil (32 mg/kg). • Modafinil 64 (N=10): modafinil (64 mg/kg). • Modafinil 128 (N=5): modafinil (128 mg/kg). • NLS-4 16 (N=5): NLS-4 (16 mg/kg). • NLS-4 32 (N=10): NLS-4 (32 mg/kg). • NLS-4 64 (N=10): NLS-4 (64 mg/kg). • NLS-4 128 (N=10): NLS-4 (128 mg/kg). • NLS-4 256 (N=5): NLS-4 (256 mg/kg).

[2] = biological target: T1, NPY1 (h) (reverse agonist radioligand) (Homo sapiens, UniProt P25929); experiment: Radioligand binding panel (Eurofins CEREP), NPY1; settings: % inhibition of control specific binding
T1 construct: Eurofins CEREP (contract study 100014859)
T1 sequence (P25929 1-384): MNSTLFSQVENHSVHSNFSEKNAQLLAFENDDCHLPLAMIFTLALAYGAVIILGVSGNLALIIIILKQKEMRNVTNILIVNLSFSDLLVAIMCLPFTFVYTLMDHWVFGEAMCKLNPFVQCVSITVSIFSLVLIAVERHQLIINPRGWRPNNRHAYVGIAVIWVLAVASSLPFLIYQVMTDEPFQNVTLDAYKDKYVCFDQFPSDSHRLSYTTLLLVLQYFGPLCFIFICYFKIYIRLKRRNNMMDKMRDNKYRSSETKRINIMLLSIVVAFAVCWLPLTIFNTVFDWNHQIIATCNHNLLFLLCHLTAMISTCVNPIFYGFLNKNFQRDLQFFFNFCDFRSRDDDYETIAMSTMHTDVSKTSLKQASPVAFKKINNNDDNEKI
Protocol: (§1) Lauflumide is tested at 10^-5 M, calculated as a % inhibition of control specific binding of a radioactively labeled ligand specific for each target.
(§2) This binding profile panel was broadly defined with roughly an equal number of selective, central and peripheral therapeutically relevant targets, including native animal tissues, radioligands and specific enzymes involved in cell cycle regulation in accordance with Eurofins Standard Operating Procedure (www.eurofins.fr).
(§3) For radioligand binding experiments, the half maximal inhibitory concentration (IC50) and the half maximal effective concentration (EC50) values were determined (via computer software) by nonlinear regression analysis of the competition curves using Hill equation curve fitting. The inhibition constants (Ki) were calculated using the Cheng-Prusoff equation (Ki=IC50/(1+(L/KD)), where L is the concentration of radioligand in the assay, and KD is the affinity of the radioligand for the receptor.
(§4) The results are expressed as a % control specific binding ([measured specific binding/control specific binding]×100) and as a % inhibition of control specific binding (100−[(measured specific binding/control specific binding)×100]) obtained in the presence of the test compounds. […]

[3] = biological target: T2, DAT (h) (antagonist radioligand) (Homo sapiens, UniProt Q01959); experiment: Radioligand binding panel (Eurofins CEREP), DAT; settings: % inhibition of control specific binding
T2 construct: Eurofins CEREP (contract study 100014859)
Protocol: as §1, §2, §3, §4

T2 sequence (Q01959 whole entry): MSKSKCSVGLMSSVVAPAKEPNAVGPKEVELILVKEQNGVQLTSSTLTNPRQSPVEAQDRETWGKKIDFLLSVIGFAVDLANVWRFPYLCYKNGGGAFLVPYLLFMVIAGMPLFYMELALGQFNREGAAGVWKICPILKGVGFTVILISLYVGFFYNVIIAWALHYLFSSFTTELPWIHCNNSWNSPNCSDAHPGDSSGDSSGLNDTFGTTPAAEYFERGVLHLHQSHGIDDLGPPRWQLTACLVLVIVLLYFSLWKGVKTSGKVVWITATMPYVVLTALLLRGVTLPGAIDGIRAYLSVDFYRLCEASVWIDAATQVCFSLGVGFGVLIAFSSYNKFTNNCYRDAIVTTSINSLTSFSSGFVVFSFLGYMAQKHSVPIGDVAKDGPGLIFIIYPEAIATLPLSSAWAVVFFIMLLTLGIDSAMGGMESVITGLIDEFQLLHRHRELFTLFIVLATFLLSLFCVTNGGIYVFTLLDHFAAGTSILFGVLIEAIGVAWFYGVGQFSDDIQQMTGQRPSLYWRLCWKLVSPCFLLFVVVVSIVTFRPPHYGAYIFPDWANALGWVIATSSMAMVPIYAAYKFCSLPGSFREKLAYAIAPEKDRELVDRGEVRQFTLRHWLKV

NC(=O)C[S@@+]([O-])C(c1ccc(F)cc1)c1ccc(F)cc1 [Lauflumide, 2-[(R)-((bis(4-fluorophenyl)methane)sulfinyl)]acetamide]
Weight loss induced by the fatigue procedure ([1]; 16 mg/kg p.o.): not modified | Weight loss induced by the fatigue procedure ([1]; 32-256 mg/kg p.o.): aggravated | % Inhibition at 10^−5M [2]: 27.3% | % Inhibition at 10^−5M [3]: 84.4%
